Source: ChEMBL document CHEMBL1201862, “PubChem BioAssay data set” (2004)
Calls of active or inactive are those of the source.

Legend:
[1] = cells; type: functional, cell-based
[2] = A cytotoxicity screen of small molecule inhibitors of the PhoP region in Salmonella typhi identified in the primary screen. [Related pubchem assays: 1850, 1864, 1985 ]; type: functional
[3] = target: T1, DNA repair and recombination protein RAD54-like (Homo sapiens, UniProt Q92698); assay: RAD54 Holliday junction migration blockers – biochemical, fluorescence, cherry-picked samples, dose series, confirmation (AID 651657); type: functional
T1 sequence (Q92698 whole entry): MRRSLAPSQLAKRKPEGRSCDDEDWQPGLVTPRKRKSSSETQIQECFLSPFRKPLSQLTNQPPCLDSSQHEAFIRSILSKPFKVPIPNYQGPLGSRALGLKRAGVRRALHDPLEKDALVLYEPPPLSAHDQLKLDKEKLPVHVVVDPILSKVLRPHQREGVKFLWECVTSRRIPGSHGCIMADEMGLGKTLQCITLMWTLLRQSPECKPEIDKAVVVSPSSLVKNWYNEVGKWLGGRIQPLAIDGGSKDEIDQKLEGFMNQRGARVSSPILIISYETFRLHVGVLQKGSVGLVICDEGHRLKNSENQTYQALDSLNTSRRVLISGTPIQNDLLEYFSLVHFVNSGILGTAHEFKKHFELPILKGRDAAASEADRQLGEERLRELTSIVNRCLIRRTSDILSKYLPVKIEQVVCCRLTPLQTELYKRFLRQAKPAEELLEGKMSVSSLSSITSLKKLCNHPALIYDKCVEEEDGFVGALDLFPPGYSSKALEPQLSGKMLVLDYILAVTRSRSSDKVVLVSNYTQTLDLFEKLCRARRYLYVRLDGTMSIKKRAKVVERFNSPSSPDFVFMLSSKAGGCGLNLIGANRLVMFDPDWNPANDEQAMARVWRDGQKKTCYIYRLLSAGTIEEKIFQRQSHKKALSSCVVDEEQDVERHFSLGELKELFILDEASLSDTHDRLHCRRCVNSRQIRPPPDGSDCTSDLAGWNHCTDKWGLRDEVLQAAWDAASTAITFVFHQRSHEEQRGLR

[4] = cells; type: functional, cell-based; remark: listed apart in the source
[5] = target: T2, Mucolipin-3 (Homo sapiens, UniProt Q8TDD5); assay: Dose response cell-based high-throughput screening assay for agonists of the transient receptor potential channel ML3 (TRPML3). [Related pubchem assays: 1526, 1424, 1448 ]; type: functional
T2 sequence (Q8TDD5 whole entry): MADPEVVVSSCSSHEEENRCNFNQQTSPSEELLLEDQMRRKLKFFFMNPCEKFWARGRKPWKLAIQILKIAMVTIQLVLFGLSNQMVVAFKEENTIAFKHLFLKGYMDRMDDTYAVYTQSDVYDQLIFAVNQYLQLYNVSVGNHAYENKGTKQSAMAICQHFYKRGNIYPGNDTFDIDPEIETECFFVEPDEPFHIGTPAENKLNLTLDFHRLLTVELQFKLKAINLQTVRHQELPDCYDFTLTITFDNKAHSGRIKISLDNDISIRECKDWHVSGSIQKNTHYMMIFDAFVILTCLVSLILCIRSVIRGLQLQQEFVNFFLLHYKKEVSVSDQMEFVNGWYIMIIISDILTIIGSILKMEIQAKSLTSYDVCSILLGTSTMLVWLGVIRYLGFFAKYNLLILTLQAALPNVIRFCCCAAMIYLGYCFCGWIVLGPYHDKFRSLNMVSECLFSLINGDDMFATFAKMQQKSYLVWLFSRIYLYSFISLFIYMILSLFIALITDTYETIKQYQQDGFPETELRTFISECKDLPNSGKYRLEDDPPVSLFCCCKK

[6] = system: HEK293; assay: cells; type: functional, cell-based; settings: Homo sapiens
[7] = system: HEK293; assay: inhibition of NOD1-driven NF-kB reporter – cell-based, luminescence, uHTS, primary screen (AID 1578); type: functional; settings: Homo sapiens
[8] = system: HEK293; assay: cells; type: functional, cell-based; settings: Homo sapiens; remark: listed apart in the source
[9] = system: HEK293; assay: NOD2 signaling inhibitors in MDP-stimulated cells, cell-based, uHTS, luminescence (AID 2001); type: functional; settings: Homo sapiens
[10] = target: Ion channel NompC (Danio rerio, UniProt Q7T1G6); assay: Fluorescence counterscreen assay for TRPML3 agonists: dose response cell-based high-throughput screening assay to identify agonists of the transient receptor potential channel N1 (TRPN1). [Related pubchem assays: 1526, 1424, 1448 ]; type: functional
[11] = target: Beta-galactosidase (Escherichia coli, UniProt Q8VNN2); assay: detection-enzyme interference by beta-gal modulators – biochemical, E. coli enzyme, set 3, artefact control for CCR6 antagonist project, dose response (AID 504712); type: functional
[12] = target: T3, Probable nicotinate-nucleotide adenylyltransferase (Staphylococcus aureus (strain N315), UniProt P65502); type: functional, Staphylococcus aureus subsp. aureus N315; settings: read-out: IC50_Mean;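 as to IC50 Mean: confirmatory dose-response retesting of NadD inhibitor hits first found in an ultra-high-throughput screen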
[13] = target: T3, Probable nicotinate-nucleotide adenylyltransferase; type: functional, Staphylococcus aureus subsp. aureus N315
[14] = Dd2 malaria parasite growth inhibition potency – SYBR Green, dry powder samples, dose response (AID 1159566); type: functional, cell-based;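 also: potency for growth inhibition with lower SYBR green DNA signal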
[15] = P. falciparum Dd2 growth inhibitors, dose response, SYBR Green, cherry-picked samples (AID 1159567); type: functional, cell-based
[16] = toxicity to human HepG2 hepatoma cells – cell-based, plate reader, dry powder samples, cytotoxicity control, dose response (AID 1159569); type: functional;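 also: inhibitor potency with signal falling toward the positive control level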
[17] = growth inhibition of yeast DHODH-expressing 3D7 parasites – SYBR Green, dry powder samples, dose response (AID 1159570); type: functional, cell-based;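 also: parasite growth measured after 72 hours of compound exposure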
[18] = growth inhibition of PfATP4-mutant resistant parasites – NITD609-resistant line, SYBR Green, dry powder, dose response (AID 1159571); type: functional, cell-based;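 also: parasites synchronized at ring stage by sorbitol before testing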
[19] = target: Kallikrein-7 (Homo sapiens, UniProt P49862); assay: Fluorescence Intensity-based biochemical primary high throughput dose response assay to identify activators of kallikrein-7 (K7) zymogen.
[20] = target: T4, Aminopeptidase N (Plasmodium falciparum FcB1/Columbia, UniProt O96935); assay: malaria alanyl aminopeptidase activity blockers – biochemical, fluorogenic H-Leu-NHMec substrate, 1536-well (AID 1445); set-up: species or system Plasmodium falciparum 3D7, 3D7
T4 sequence (O96935 whole entry): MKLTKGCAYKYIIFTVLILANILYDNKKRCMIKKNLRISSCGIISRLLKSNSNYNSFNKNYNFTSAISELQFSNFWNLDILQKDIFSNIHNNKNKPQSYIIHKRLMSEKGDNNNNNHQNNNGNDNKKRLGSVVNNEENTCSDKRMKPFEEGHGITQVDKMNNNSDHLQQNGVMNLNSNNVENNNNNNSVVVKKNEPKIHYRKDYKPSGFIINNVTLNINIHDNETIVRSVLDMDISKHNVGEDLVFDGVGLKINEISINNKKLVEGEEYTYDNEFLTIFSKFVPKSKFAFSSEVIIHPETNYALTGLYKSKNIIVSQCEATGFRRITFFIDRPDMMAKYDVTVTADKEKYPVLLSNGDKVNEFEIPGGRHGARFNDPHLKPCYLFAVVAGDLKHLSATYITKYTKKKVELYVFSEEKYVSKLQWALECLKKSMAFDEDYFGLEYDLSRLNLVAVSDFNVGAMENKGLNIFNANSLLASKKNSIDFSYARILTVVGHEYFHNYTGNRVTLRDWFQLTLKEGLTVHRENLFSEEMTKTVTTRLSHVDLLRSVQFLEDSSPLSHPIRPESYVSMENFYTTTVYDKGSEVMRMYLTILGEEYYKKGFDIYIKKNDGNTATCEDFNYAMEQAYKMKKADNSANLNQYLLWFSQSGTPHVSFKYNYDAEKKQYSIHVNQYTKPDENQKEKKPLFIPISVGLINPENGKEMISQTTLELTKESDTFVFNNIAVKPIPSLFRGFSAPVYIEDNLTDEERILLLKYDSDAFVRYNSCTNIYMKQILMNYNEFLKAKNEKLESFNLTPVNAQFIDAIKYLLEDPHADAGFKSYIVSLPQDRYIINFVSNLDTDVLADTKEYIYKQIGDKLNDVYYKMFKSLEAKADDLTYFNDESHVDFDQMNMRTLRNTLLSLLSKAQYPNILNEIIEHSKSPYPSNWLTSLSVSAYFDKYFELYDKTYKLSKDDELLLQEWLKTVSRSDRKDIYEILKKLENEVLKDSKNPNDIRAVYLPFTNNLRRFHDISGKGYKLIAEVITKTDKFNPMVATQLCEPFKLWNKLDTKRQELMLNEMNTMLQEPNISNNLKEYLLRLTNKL

[21] = intracellular Trypanosoma cruzi inhibitors in host cells – cell-based, plate reader, cherry-pick samples, set 3, dose response (AID 651818); type: functional;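 also: compounds incubated with infected cells for about four days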

T3 sequence (P65502 whole entry): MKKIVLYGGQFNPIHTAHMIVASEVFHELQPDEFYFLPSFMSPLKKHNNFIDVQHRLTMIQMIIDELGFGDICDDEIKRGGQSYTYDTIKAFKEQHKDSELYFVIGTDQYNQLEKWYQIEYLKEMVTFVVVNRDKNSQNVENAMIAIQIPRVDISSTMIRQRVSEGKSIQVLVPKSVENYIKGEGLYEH
Sequence of Beta-galactosidase (Q8VNN2 whole entry): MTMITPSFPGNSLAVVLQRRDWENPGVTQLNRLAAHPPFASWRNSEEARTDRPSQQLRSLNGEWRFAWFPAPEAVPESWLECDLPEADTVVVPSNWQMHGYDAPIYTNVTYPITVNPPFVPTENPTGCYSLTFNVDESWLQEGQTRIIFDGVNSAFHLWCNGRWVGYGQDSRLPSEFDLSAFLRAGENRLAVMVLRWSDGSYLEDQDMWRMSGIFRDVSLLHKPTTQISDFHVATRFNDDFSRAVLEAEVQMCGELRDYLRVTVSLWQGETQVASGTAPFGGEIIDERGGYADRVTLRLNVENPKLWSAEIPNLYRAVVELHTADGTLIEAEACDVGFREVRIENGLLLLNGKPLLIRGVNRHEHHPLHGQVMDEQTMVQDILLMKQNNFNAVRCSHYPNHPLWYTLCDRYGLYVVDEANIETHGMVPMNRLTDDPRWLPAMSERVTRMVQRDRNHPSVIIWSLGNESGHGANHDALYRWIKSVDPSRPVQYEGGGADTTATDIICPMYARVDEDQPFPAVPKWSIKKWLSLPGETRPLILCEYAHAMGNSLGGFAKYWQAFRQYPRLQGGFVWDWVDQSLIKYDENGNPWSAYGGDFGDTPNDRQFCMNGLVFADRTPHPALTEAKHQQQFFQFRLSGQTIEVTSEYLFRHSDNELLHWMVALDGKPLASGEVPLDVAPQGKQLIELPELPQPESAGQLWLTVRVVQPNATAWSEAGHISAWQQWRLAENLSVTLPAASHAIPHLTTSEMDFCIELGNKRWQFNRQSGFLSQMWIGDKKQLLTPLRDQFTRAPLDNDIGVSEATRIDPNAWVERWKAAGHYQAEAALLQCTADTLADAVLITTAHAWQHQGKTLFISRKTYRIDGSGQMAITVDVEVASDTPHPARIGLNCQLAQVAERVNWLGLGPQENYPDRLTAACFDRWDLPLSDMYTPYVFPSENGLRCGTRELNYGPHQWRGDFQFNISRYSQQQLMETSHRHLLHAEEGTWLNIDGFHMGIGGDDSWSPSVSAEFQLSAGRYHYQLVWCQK
Sequence of Ion channel NompC (Q7T1G6 whole entry): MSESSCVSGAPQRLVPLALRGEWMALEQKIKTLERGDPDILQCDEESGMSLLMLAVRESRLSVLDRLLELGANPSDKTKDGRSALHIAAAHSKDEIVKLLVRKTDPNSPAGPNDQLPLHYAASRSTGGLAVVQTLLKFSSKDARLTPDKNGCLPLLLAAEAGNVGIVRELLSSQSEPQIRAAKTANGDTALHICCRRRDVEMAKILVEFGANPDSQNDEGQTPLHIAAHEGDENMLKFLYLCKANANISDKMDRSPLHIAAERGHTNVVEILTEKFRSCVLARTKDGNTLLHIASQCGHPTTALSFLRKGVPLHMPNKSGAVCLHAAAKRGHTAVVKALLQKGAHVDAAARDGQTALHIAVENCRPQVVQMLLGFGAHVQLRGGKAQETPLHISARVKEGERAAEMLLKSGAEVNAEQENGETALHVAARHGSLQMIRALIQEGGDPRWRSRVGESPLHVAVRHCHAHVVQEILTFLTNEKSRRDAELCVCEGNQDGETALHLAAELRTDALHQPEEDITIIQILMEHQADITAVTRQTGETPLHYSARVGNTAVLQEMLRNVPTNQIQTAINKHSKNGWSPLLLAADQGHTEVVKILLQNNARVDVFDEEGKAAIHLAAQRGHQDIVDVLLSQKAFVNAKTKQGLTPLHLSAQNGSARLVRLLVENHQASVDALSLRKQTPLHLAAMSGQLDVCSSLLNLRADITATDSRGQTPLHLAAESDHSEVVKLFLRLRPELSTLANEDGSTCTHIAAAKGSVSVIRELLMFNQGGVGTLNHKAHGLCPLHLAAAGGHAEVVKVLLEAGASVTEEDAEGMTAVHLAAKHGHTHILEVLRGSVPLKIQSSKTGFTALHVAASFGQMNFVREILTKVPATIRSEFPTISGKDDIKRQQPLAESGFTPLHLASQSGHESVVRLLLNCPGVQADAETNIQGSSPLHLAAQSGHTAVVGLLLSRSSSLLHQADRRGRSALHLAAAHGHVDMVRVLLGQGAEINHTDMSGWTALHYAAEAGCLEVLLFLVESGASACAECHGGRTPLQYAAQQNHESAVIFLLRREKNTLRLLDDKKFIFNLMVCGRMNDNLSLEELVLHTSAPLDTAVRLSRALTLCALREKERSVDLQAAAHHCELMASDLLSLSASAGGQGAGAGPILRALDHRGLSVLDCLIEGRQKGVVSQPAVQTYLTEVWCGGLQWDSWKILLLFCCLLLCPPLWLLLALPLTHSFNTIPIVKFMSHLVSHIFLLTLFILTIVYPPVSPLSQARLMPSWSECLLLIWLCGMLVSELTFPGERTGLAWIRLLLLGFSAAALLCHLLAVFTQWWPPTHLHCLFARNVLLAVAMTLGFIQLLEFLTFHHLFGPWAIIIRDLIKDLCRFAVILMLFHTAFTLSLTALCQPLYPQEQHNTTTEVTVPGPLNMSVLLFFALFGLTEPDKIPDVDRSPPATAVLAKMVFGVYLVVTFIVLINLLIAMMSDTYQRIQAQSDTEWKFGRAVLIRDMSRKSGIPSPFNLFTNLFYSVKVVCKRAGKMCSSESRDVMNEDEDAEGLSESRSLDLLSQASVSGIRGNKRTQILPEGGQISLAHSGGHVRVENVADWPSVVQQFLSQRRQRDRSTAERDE
Sequence of Kallikrein-7 (P49862 whole entry): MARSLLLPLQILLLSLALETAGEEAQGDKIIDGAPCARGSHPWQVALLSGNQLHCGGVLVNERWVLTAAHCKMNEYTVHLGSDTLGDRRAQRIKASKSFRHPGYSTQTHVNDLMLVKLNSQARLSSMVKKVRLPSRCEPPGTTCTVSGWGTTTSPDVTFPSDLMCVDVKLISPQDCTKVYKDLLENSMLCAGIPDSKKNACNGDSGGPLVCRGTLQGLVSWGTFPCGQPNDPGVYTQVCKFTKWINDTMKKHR

O=C(CN1CCCC1)Nc1ccc(-c2nc3cc(NC(=O)CN4CCCC4)ccc3o2)cc1
EC50 [1]: > 350 µM (not active) | EC50 [2]: > 50 µM (active) | AC50 [3]: 12.5 µM (active) | EC50 [4]: > 350 µM (not active)

CCOc1ccc(NC(=O)c2ccccc2NS(=O)(=O)c2ccc(F)cc2)c([N+](=O)[O-])c1
EC50 [5]: 5.29 µM (active) | IC50 [6]: > 20 µM (inactive) | EC50 [7]: 4.21 µM (active) | IC50 [8]: 19 µM (active) | IC50 [9]: 11.8 µM (inactive) | EC50 [10]: > 29.9 µM (not active)

Cc1c([N+](=O)[O-])cc(N2C(=O)C=CC2=O)cc1[N+](=O)[O-]
IC50 [11]: > 66.6 µM (inactive) | IC50 [12]: 6.33 µM (active) | IC50 [13]: 3.77 µM (active)

C[N+]12CN3CN(CN(C3)C1)C2
EC50 [2]: > 50 µM (active)

COc1ccc(C2=NN3C(C2)c2ccccc2OC3c2cccs2)cc1 (stereo not drawn)
EC50 [2]: > 50 µM (active)

OC[C@@H]1[C@H](c2ccc(C3=CCCC3)cc2)[C@@H](CNC2CCCC2)N1CC1CC1
AC50 [14]: 0.843 µM (active) | AC50 [15]: 1.52 µM (active) | AC50 [16]: 21.1 µM (active) | AC50 [17]: 1.2 µM (active) | AC50 [18]: 0.78 µM (active)

Nc1nccnc1C(=O)OCc1nc2sc3c(c2c(=O)[nH]1)CCCC3
EC50 [19]: 6.32 µM (active)

CC1CCCCC1NC(=O)CSc1nnc(-c2ccccc2)n1N (stereo not drawn)
IC50 [20]: 46.8 µM (active)

C[C@@H]1CN([C@H](C)CO)C(=O)c2cccc(NC(=O)CCCCCC(=O)Nc3ccccc3N)c2O[C@@H]1CN(C)S(=O)(=O)c1ccccc1
AC50 [14]: 0.573 µM (active) | AC50 [15]: 0.989 µM (active) | AC50 [16]: 70.7 µM (active) | AC50 [17]: 0.507 µM (active) | AC50 [18]: 0.549 µM (active) | AC50 [21]: 3.26 µM (active)
